Tests used:
B16-F10 tumors = experiment: Tumor growth inhibition study, B16-F10 tumor-bearing mice; type: in vivo, mouse; conditions: B16-F10 in C57BL/6 mice; SB02024 20 mg·kg^−1 oral daily day 7-16; ADU-S100 10 μg intratumoral days 9, 11, 13, 15
Description: Study protocols were approved by the Institutional Animal Care and Use Committee of CrownBio in China (AN‐1903‐05‐313) or the LIH's animal welfare committee in Luxembourg (agreement LECR‐2018‐12). Mice were handled according to European Union guidelines, adhering to the principles of replacement, reduction, and refinement (3Rs). Animals were housed in appropriate accommodations conducive to their well‐being, with provisions for housing, feeding, and environmental enrichment to meet their physical and behavioral needs. Highly skilled personnel were involved in carrying out procedures related to the animal experiments to ensure proper care and handling. Female 6 to 8‐week‐old BALB/c (supplied by Shanghai Lingchang Biotechnology Co., Shanghai, China; n = 14) or C57BL/6 mice (supplied by Janvier Labs, Le Genest‐Saint‐Isle, France; n = 40) were injected into the right flank with 1 × 10^6 Renca or 0.2 × 10^6 B16‐F10 cells, respectively, resuspended in 100 μL PBS (day 0). When tumors were palpable (day 9 for Renca, day 7 for B16‐F10 tumors), mice were randomly assigned into two groups for the Renca model with n = 6 (vehicle) and n = 8 (SB02024) or four groups for the B16‐F10 model with n = 10. […] Tumor growth was measured using a caliper every other day and estimated as follows: volume (cm^3) = (width)^2 × length × 0.5.

[1] = design: method as in PMID 34070756; conditions: cited from earlier work

Nc1ncnc2c1ncn2[C@@H]1O[C@@H]2COP(=O)([S-])O[C@@H]3[C@H](O)[C@@H](COP([O-])(=S)O[C@H]2[C@H]1O)O[C@H]3n1cnc2c(N)ncnc21.[Na+].[Na+] (some centres unmarked) [ADU-S100, reference compound]
% TGI (percent tumor growth inhibition compared to vehicle control) (B16-F10 tumors): 36%
anti-tumor efficacy in clinical trials [1]: only limited

Reference: article PMC11306511, “Combining VPS34 inhibitors with STING agonists enhances type I interferon signaling and anti‐tumor efficacy” (Molecular Oncology, 2024)
